Experiments:
Format in all cases: cell-based, human
γH2AX in MOLT-4 cells = assay: H2AX (phospho S139) In-Cell ELISA, MOLT-4; conditions: MOLT-4, 48 h, versus CLA
Experimental: The level H2AX protein phosphorylated Ser139 was measured in tested leukemia cells by using of In-Cell ELISA, ICE assay kit. The cells were seeded on 96-well plates (100 × 10^3/well) and 48 h later, incubated with the appropriate compounds. In some experimental variants, cells were preincubated for 1 h with VE-821 (10 µM). The cells were fixed by adding a final concentration of 4% paraformaldehyde solution (10 min, room temperature). After 2 h of Block Solution incubation, cells were treated with a highly specific antibody. A rabbit monoclonal antibody specific to H2AX (phospho S139) was used (at 1:100, 2 h incubation). Next Secondary Antibody Solution (at 1:1000) were added to the cells. The measurements were obtained on a fluorescence plate reader at an excitation wavelength of 680 nm and emission at 694 nm. The cells were PBS washed and 100 µL of Janus Green Stain was added to each well of the plate (5 min., room temperature). The data were collected at excitation wavelength of 750 nm and emission at 800 nm channel (Fluoroskan Cary Eclipse). Antibody signal intensity was normalized to the total amount using Janus Green cell-stain.

dCK in MOLT-4 cells = assay: Deoxycytidine kinase activity, MOLT-4; conditions: MOLT-4, 24 h incubation
Experimental: Deoxycytidine kinase activity was measured in accordance with the manufacturer’s protocol. The cells, at final concentration were plated at 1 × 10^6 cells per 24-well plates and cultured with the tested compounds for 24 h. Some cells were preincubated with an ATR kinase inhibitor (VE-821) for 1 h at 37 °C before adding the tested compounds. After drug treatment, the cells were washed with PBS and resuspended in an ice-cold cytosol extraction buffer containing 1 mM phenylmethylsulfonyl fluoride (PMSF) and a protease inhibitor cocktail. The cell lysate was centrifuged at 10,000 × g for 30 min at 4 °C. The protein concentration was determined using the Bradford method. The supernatant (cytosolic fraction) was collected and stored at −80 °C. The clarified cytoplasm extracts, dCK standards, and blank control were added to the appropriate microtiter plate wells with a biotin-conjugated polyclonal antibody prepared specifically for dCK. Avidin conjugated to horseradish peroxidase (HRP) was added to each microplate well and incubated. Then, a TMB substrate solution was added to the plate. […] The enzyme-substrate reaction was terminated by addition of a sulfuric acid solution. The color change was measured spectrophotometrically at a wavelength of 450 nm using a microplate reader (BioTek).

[1] = test system: intracellular calcium in THP-1 cells; assay: Intracellular calcium assay (Fluo-4 NW), THP-1; conditions: THP-1, 2 h incubation
Experimental: Intracellular calcium levels were determined using the fluorescent probe Fluo-4 NW. The cells were plated in 96-well black plates (15 × 10^3 cells/well) and treated with cladribine and the new derivatives. Incubation with drugs was performed for different times (2–48 h). The medium was then removed, and the cells were washed with phosphate buffered saline (PBS)[35],[36]. Finally, a dye loading solution (Fluo-4 NW dye, probenecid, assay buffer—1xHBSS, 20 mM HEPES; 100 μL per well) was processed according to the Fluo-4 NW Calcium Assay Kit protocol (Molecular Probes) and incubated for 30 min in the dark at 37 °C, and then for another 30 min at the room temperature. The measurements were calculated on a fluorescence plate reader for excitation at 494 nm and emission at 516 nm. To avoid errors in the measurement of fluorescence intensity, caused by feasible cell detachment and resulting decrease in the cell number in the samples due to the drug treatment, DNA content was estimated as well.[37] After the measurement of intracellular calcium fluorescence, the probes were centrifuged at 300xg, 10 min. […] Then 100 μl of 5 μM of propidium iodide (PI) was added, the plate was immediately shaken, incubated for 15 min at room temperature in the dark and the fluorescence was read at 350/620 nm with a Fluoroskan Ascent FL microplate reader (Labsystems, Sweden).

[2] = test system: caspase-3/7 in MOLT-4 cells; assay: Caspase 3/7 assay, MOLT-4; conditions: MOLT-4, 48 h
Experimental: (§1) The activities of caspases-3 and −7 were estimated with CellEvent™ Caspse-3/7 Green Detection Reagent (Thermo Fisher Scientific) according to the manufacturer’s protocol. The cells were seeded on 96-well plates (15 × 10^3/ well) and 24 h later, incubated with the appropriate drugs for 24 h or 48 h. The cells were fixed by adding a final concentration of 4% paraformaldehyde solution (10 min, room temperature). Cells were labeled with CellEvent™Caspase-3/7 Green Detection Reagent (5 µM), followed by Hoechst 33342 (5 µg/ml) for 15 minutes in complete medium3. Caspase-3/7 Green Detection Reagent was diluted into PBS with 5% FBS to avoid fluorescence background. […] Fluorescence intensity was measured using a Fluoroskan Ascent FL plate reader (Labsystem, Sweden). Cysteine protease activity was expressed as a ratio of fluorescence of the drug-treated samples to the corresponding untreated controls (taken as 100%). In some experimental variants, cells were preincubated for 1 h with VE-821 (10 µM) or Z-FA-FMK (caspas-3 inhibitor, 0.5 µM) to confirm that the fluorescence observed in both control and drug-treated cells was due to the presence of caspase-3/7 in samples. […]

[3] = test system: caspase-3/7 in THP-1 cells; assay: Caspase 3/7 assay, THP-1; conditions: THP-1, 48 h
Experimental: as §1

OC[C@H]1O[C@@H](n2cnc3c(N=CN4CCOCC4)nc(Cl)nc32)C[C@@H]1O [CLA-FMOR, [6-deamino-6-(N′, N′-3′-oxa-1′, 5′-pentamethyleneformamidine)] cladribine]
effectiveness in inducing dsDNA (γH2AX) relative to CLA (γH2AX in MOLT-4 cells): about 2 fold | dCK activity (dCK in MOLT-4 cells): highest dCK activity | intracellular calcium ion concentration [1]: highest intracellular calcium ion concentration | caspase-3/7 level [2]: highest changes

OC[C@H]1O[C@@H](n2cnc3c(N=CN4CCCC4)nc(Cl)nc32)C[C@@H]1O [CLA-FPIR, [6-deamino-6-(N′, N′-l′, 4′-tetramethyleneformamidino)] cladribine]
effectiveness in inducing dsDNA (γH2AX) relative to CLA (γH2AX in MOLT-4 cells): about 2 fold | intracellular calcium ion concentration [1]: highest intracellular calcium ion concentration | caspase-3/7 level [3]: highest changes

Reference: paper PMC6773697, “Antileukemic activity of novel adenosine derivatives” (Scientific Reports, 2019)
